We go through 14 compounds from patent US11708360B2, “N-substituted-dioxocyclobutenylamino-3-hydroxy-picolinamides useful as CCR6 inhibitors” (Pfizer Inc., priority 2018, dated 2023).

For test [1], the target named is T1, CXCR2 (Homo sapiens, UniProt P25025).
T1 sequence (P25025 1-360): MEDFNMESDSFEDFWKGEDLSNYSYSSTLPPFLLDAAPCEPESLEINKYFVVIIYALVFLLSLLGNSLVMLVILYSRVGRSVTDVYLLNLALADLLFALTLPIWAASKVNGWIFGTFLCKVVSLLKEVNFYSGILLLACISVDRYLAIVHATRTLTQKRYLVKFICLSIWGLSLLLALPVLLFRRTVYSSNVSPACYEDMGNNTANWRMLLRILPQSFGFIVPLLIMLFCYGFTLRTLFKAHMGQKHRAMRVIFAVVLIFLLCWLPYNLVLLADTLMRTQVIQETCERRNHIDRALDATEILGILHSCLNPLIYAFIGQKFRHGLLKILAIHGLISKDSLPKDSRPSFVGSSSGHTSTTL
The arrangement: host or cells: Path-Hunter HEK293 cells. The conditions noted are these: Table 16; data disclosed in WO 2013/061005; β-arrestin recruitment, CXCL8, Path-Hunter HEK293 cells; cited from earlier work. A general note: Activated receptors often draw arrestin, which recruitment assays turn into a signal.

Test [2] deals with T1, CXCR2. Briefly: Human Neutrophil Chemotaxis Assay. The arrangement: Human neutrophils were purified from freshly drawn human whole blood; endogenous in cells; host or cells: primary human neutrophils from fresh whole blood. In kind it is cell-based. The protocol: After 30 min, the labeled neutrophils were washed twice in chemotaxis buffer, resuspended as before and used immediately. For the assay, test compounds were tested in a dose-response format to determine IC50. Labeled neutrophils (50 μL) were pre-incubated with diluted test compound (50 μL) for 30 min in a 96-well plate (Greiner). Next, 100 μL of diluted compound was mixed with 100 μL of GROα (Peprotech #300-11, 2 nM) in the bottom portion of the chemotaxis chamber. The top portion (insert) of the chemotaxis system containing the FluoroBlok porous membrane was then assembled together. 50 μL of the pre-incubated neutrophils were added to the FluoroBlok insert (top portion) and chemotaxis measured by the neutrophils ability to migrate through the membrane towards the specific CXCR2 ligand, GROα.
IC50 values for compounds of the present invention (Table 12) were determined by the non-linear regression analysis of dose response curves.

The target of a further test is T2, CCR6 (Homo sapiens, UniProt P51684).
T2 construct: Human CD4+CCR6+CXCR3-T cells were isolated from leukopak from healthy donors; endogenous in cells
T2 sequence (P51684 1-374): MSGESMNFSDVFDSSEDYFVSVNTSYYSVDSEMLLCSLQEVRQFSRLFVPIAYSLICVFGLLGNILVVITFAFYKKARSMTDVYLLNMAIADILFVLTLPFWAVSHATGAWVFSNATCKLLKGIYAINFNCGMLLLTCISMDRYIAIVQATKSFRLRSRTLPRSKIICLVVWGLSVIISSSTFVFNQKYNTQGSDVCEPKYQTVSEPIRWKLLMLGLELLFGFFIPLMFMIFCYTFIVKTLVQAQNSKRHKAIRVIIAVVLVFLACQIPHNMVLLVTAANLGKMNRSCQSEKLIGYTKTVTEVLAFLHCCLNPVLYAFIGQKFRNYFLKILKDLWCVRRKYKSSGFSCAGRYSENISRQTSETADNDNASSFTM
Briefly: CCR6+ T Cell Chemotaxis Assay. Format: cell-based. The conditions noted are these: for IC50: Table 11, human CD4+CCR6+CXCR3- T cells, CCL20 0.5 nM in bottom chamber, 1 h at 37° C., read-out: IC50; for T Cell Chemotaxis Selectivity: Table 13, T cell chemotaxis compared to neutrophil chemotaxis, NS = not selective for T cell chemotaxis compared to neutrophil chemotaxis. The text has this:
Human CD4+CCR6+CXCR3-T cells were isolated from leukopak from healthy donors using EasySep™ Human Th17 Cell Enrichment Kit. […] Day 4 post activation, Dynabeads were removed from the culture. The activated T cells were maintained at 1-2×10^6 cells/mL for 15 days by feeding fresh growth media when needed.
For IC50 determination, the top and bottom of the chemotaxis chamber contained the same concentration of compound. DMSO was kept constant at 0.1% (v/v) in all wells. The final concentration of CCL20 (Peprotech 300-29A) in the bottom chamber is 0.5 nM. The fully assembled chemotaxis plate was placed in a cell culture incubator at 37° C., 5% CO2 for 1 h. After incubation, the top filter was removed, followed by a quick freeze of the bottom chamber at −80° C. for 1 h. The migrated cells in the bottom chamber were stained with CyQUANT dye (Life Technologies, C7026) for cell number determination.
IC50 values for compounds of the present invention (Table 11) were determined by the non-linear regression analysis of dose response curves.

[3] abbreviates: Table 17, WO 2013/061005 comparator compounds, read-out: IC50 (nM) CXCR2 Neutrophil, GROα Chemotaxis.
[4] abbreviates: Table 12, human neutrophils migrating towards the CXCR2 ligand GROα, read-out: IC50.

Read-outs that look alike come from different tables or passages of the source.

In the case of `Cc1ccc([C@H](Nc2c(Nc3ccc(Cl)c(C(=O)N4CCN(C)CC4)c3O)c(=O)c2=O)C2(C)COC2)o1` [Example 53, reference compound], the half-inhibitory concentration (IC50) on CXCR2 [1] was 30 nM; on CXCR2 [2] (setting [3]) it was 1140 nM.
Turning to `Cc1cn(C)nc1[C@H](Nc1c(Nc2ccnc(C(=O)N(C)C)c2O)c(=O)c1=O)C1(C)CC2(CC2)C1` (single isomer, unassigned) [Example 17], the IC50 on CCR6 stood at 5.9 nM; at CXCR2 [2] (setting [4]) it was 3160 nM. The “T Cell Chemotaxis Selectivity” value on CCR6 was 535.
With `COc1cn(C)nc1[C@H](Nc1c(Nc2ccnc(C(=O)N(C)C(C)C)c2O)c(=O)c1=O)C(C)(C)C` [Example 14, (R)-3-Hydroxy-N-isopropyl-4-((2-((1-(4-methoxy-1-methyl-1H-pyrazol-3-yl)-2,2-dimethylpropyl)amino)-3,4-dioxocyclobut-1-en-1-yl)amino)-N-methylpicolinamide], the IC50 at CCR6 worked out at 12.5 nM; on CXCR2 [2] (setting [4]), 272 nM. Moreover, the “T Cell Chemotaxis Selectivity” value at CCR6 came to 22.
With `CCC1([C@@H](Nc2c(Nc3ccnc(C(=O)N(C)C)c3O)c(=O)c2=O)c2nn(C)cc2C)CCC1` (single isomer, unassigned) [Example 35], the IC50 amounted to 30 nM at CCR6 and 255 nM at CXCR2 [2] (setting [4]). For the same compound, on CCR6, the “T Cell Chemotaxis Selectivity” value is listed as 8.
For `CCN(C)C(=O)c1nccc(Nc2c(N[C@@H](c3nn(C)cc3C#N)C3(C)CCCC3)c(=O)c2=O)c1O` [Example 30, (R)-4-((2-(((4-Cyano-1-methyl-1H-pyrazol-3-yl)(1-methylcyclopentyl)methyl)amino)-3,4-dioxocyclobut-1-en-1-yl)amino)-N-ethyl-3-hydroxy-N-methylpicolinamide] the same measures were 96.1 nM, 4030 nM and 42.
For `COc1cn(C)nc1[C@H](Nc1c(Nc2ccnc(C(=O)N(C)C)c2O)c(=O)c1=O)C1(C)CCCC1` [Example 12, (R)-3-Hydroxy-4-((2-(((4-methoxy-1-methyl-1H-pyrazol-3-yl)(1-methylcyclopentyl)methyl)amino)-3,4-dioxocyclobut-1-en-1-yl)amino)-N,N-dimethylpicolinamide], the results for the IC50 at CCR6 and on CXCR2 [2] (setting [4]) were 1.7 nM and 107 nM, respectively. For the same compound, the “T Cell Chemotaxis Selectivity” value at CCR6 amounted to 63.
For the compound `Cc1sc(CO)nc1[C@H](Nc1c(Nc2ccnc(C(=O)N(C)C)c2O)c(=O)c1=O)C1(C)CCCC1` [Example 28, (R)-3-Hydroxy-4-((2-(((2-(hydroxymethyl)-5-methylthiazol-4-yl)(1-methylcyclopentyl)methyl)amino)-3,4-dioxocyclobut-1-en-1-yl)amino)-N,N-dimethylpicolinamide], the half-maximal inhibitory concentration (IC50) at CCR6 came to 36.7 nM; at CXCR2 [2] (setting [4]) it was 2190 nM. Moreover, on CCR6, the “T Cell Chemotaxis Selectivity” value worked out at 60.
`CCc1cn(C)nc1[C@H](Nc1c(Nc2ccnc(C(=O)N(C)C)c2O)c(=O)c1=O)C(C)(C)C` [Example 27, (R)-4-((2-((1-(4-Ethyl-1-methyl-1H-pyrazol-3-yl)-2,2-dimethylpropyl)amino)-3,4-dioxocyclobut-1-en-1-yl)amino)-3-hydroxy-N,N-dimethylpicolinamide]: on CCR6, the IC50 turned out to be 13.2 nM and the “T Cell Chemotaxis Selectivity” value is 4. The concentration for half-maximal inhibition (IC50) on CXCR2 [2] (setting [4]) amounted to 52.6 nM.
Take `Cc1ccc([C@H](Nc2c(Nc3ccc(Cl)c(S(=O)(=O)N(C)C)c3O)c(=O)c2=O)C2(C)COC2)o1` [Example 22 (WO 2013/061005), reference compound]: the 50% inhibitory concentration (IC50) on CXCR2 [1] is 31 nM; at CXCR2 [2] (setting [3]) it was 35.2 nM.
As for `Cc1cn(C)nc1[C@H](Nc1c(Nc2ccnc(C(=O)N3CCN(C)CC3)c2O)c(=O)c1=O)C1(C)CCCC1` [Example 7, (R)-3-(((1,4-Dimethyl-1H-pyrazol-3-yl)(1-methylcyclopentyl)methyl)amino)-4-((3-hydroxy-2-(4-methylpiperazine-1-carbonyl)pyridin-4-yl)amino)cyclobut-3-ene-1,2-dione], at CCR6, the IC50 came to 29.8 nM and the “T Cell Chemotaxis Selectivity” value worked out at 72. Moreover, the half-maximal inhibitory concentration (IC50) on CXCR2 [2] (setting [4]) was 2160 nM.
In the case of `Cc1nc([C@H](Nc2c(Nc3ccnc(C(=O)N(C)C)c3O)c(=O)c2=O)C2(C)CCC2)c(C)s1` [Example 24, (R)-4-((2-(((2,5-Dimethylthiazol-4-yl)(1-methylcyclobutyl)-methyl)amino)-3,4-dioxocyclobut-1-en-1-yl)amino)-3-hydroxy-N,N-dimethylpicolinamide], at CCR6, the IC50 was 3.1 nM and the “T Cell Chemotaxis Selectivity” value is 325. Moreover, the half-maximal inhibitory concentration (IC50) on CXCR2 [2] (setting [4]) amounted to 1010 nM.
In the case of `Cc1nc([C@H](Nc2c(Nc3ccnc(C(=O)N(C)C)c3O)c(=O)c2=O)[C@]2(C)CC(F)(F)CO2)c(C)s1` [Example 38, 4-((2-(((S)-((S)-4,4-Difluoro-2-methyltetrahydrofuran-2-yl) (2,5-dimethylthiazol-4-yl)methyl)amino)-3,4-dioxocyclobut-1-en-1-yl)amino)-3-hydroxy-N,N-dimethylpicolinamide], the figures for the half-maximal inhibitory concentration (IC50) at CCR6 and on CXCR2 [2] (setting [4]) were 12.6 nM and 3460 nM, respectively. In addition, the “T Cell Chemotaxis Selectivity” value on CCR6 was determined as 274.
For `CN(C)C(=O)c1nccc(Nc2c(N[C@H](c3nn(C)cc3Cl)C3(C)CCCC3)c(=O)c2=O)c1O` [Example 9, (S)-4-((2-(((4-Chloro-1-methyl-1H-pyrazol-3-yl)(1-methylcyclopentyl)methyl)amino)-3,4-dioxocyclobut-1-en-1-yl)amino)-3-hydroxy-N,N-dimethylpicolinamide] the same measures were 59.7 nM, 2750 nM and 46.
As for `Cc1cn(C)nc1[C@H](Nc1c(Nc2ccnc(C(=O)N(C)C)c2O)c(=O)c1=O)C1(C)CC1` [Example 20, (R)-4-((2-(((1,4-Dimethyl-1H-pyrazol-3-yl)(1-methylcyclopropyl)methyl)amino)-3,4-dioxocyclobut-1-en-1-yl)amino)-3-hydroxy-N,N-dimethylpicolinamide], the 50% inhibitory concentration (IC50) on CCR6 was determined as 271 nM; on CXCR2 [2] (setting [4]) it was 167 nM.

Broadly, the IC50 is the concentration at which inhibition is half-maximal.
